Reference: PMC9604400, “Synthesis, Anticancer and Antitubercular Properties of New Chalcones and Their Nitrogen-Containing Five-Membered Heterocyclic Hybrids Bearing Sulfonamide Moiety” (International Journal of Molecular Sciences, 2022)

Tests used:
HCT-15 = experiment: NCI-60 screen (SRB), colon cancer; conditions: Homo sapiens
HS 578T = experiment: NCI-60 screen (SRB), breast cancer; conditions: Homo sapiens, Hs-578T
NCI-H460 = experiment: NCI-60 screen (SRB), non-small cell lung cancer; conditions: Homo sapiens
UO-31 = experiment: NCI-60 screen (SRB), renal cancer; conditions: Homo sapiens
LOX IMVI = experiment: NCI-60 screen (SRB), melanoma; conditions: Homo sapiens
HOP-62 = experiment: NCI-60 screen (SRB), non-small cell lung cancer; conditions: Homo sapiens
A549/ATCC = experiment: NCI-60 screen (SRB), non-small cell lung cancer; conditions: Homo sapiens
MDA-MB-231/ATCC = experiment: NCI-60 screen (SRB), breast cancer; conditions: Homo sapiens
MDA-MB-435 = experiment: NCI-60 screen (SRB), melanoma; conditions: Homo sapiens
NCI/ADR-RES = experiment: NCI-60 screen (SRB), ovarian cancer; conditions: Homo sapiens
SR = experiment: NCI-60 screen (SRB), leukemia; conditions: Homo sapiens
PC-3 = experiment: NCI-60 screen (SRB), prostate cancer; conditions: Homo sapiens
COLO 205 = experiment: NCI-60 screen (SRB), colon cancer; conditions: Homo sapiens
UACC-257 = experiment: NCI-60 screen (SRB), melanoma; conditions: Homo sapiens
NCI-H522 = experiment: NCI-60 screen (SRB), non-small cell lung cancer; conditions: Homo sapiens
HOP-92 = experiment: NCI-60 screen (SRB), non-small cell lung cancer; conditions: Homo sapiens
ACHN = experiment: NCI-60 screen (SRB), renal cancer; conditions: Homo sapiens
HCT-116 = experiment: NCI-60 screen (SRB), colon cancer; conditions: Homo sapiens
SK-OV-3 = experiment: NCI-60 screen (SRB), ovarian cancer; conditions: Homo sapiens
HT29 = experiment: NCI-60 screen (SRB), colon cancer; conditions: Homo sapiens
SN12C = experiment: NCI-60 screen (SRB), renal cancer; conditions: Homo sapiens
SF-268 = experiment: NCI-60 screen (SRB), CNS cancer; conditions: Homo sapiens
MDA-MB-468 = experiment: NCI-60 screen (SRB), breast cancer
SK-MEL-5 = experiment: NCI-60 screen (SRB), melanoma; conditions: Homo sapiens
RXF 393 = experiment: NCI-60 screen (SRB), renal cancer
TK-10 = experiment: NCI-60 screen (SRB), renal cancer; conditions: Homo sapiens
colon cancer cell lines = experiment: NCI-60 screen (SRB), colon cancer panel; format: cell-based; conditions: Homo sapiens, single dose 10 μM, read-out: GI (growth inhibition), range over panel
breast cancer cell lines = experiment: NCI-60 screen (SRB), breast cancer panel; format: cell-based; conditions: Homo sapiens, single dose 10 μM, read-out: GI (growth inhibition), range over panel
leukemia cell lines = experiment: NCI-60 screen (SRB), leukemia panel; format: cell-based; conditions: Homo sapiens; leukemia panel, single dose 10 μM; read-out: GI (growth inhibition), range over panel
NCI-H226 = experiment: NCI-60 screen (SRB), non-small cell lung cancer; conditions: Homo sapiens
UACC-62 = experiment: NCI-60 screen (SRB), melanoma; conditions: Homo sapiens
MALME-3M = experiment: NCI-60 screen (SRB), melanoma; conditions: Homo sapiens
MOLT-4 = experiment: NCI-60 screen (SRB), leukemia; conditions: Homo sapiens

## COc1cc(OC)c(S(N)(=O)=O)cc1C(=O)C=Cc1ccccc1 [Compound 17a, 5-Cinnamoyl-2,4-dimethoxybenzenesulfonamide]
HCT-15; HCT-15
  IC50: 3.55 µM
HCT-15; HCT-15, read-out: LC50
  CC50: 57.5 µM
HS 578T
  IC50: 5.89 µM
HS 578T; read-out: LC50
  CC50: > 100 µM
NCI-H460; NCI-H460
  IC50: 1.95 µM
NCI-H460; NCI-H460, read-out: LC50
  CC50: 51.2 µM
UO-31; UO-31
  IC50: 4.76 µM
UO-31; UO-31, read-out: LC50
  CC50: 43.5 µM
LOX IMVI
  IC50: 0.34 µM
LOX IMVI; read-out: LC50
  CC50: 41.4 µM
HOP-62; HOP-62
  IC50: 9.51 µM
HOP-62; HOP-62, read-out: LC50
  CC50: 51.9 µM
A549/ATCC; A549
  IC50: 10.5 µM
A549/ATCC; A549, read-out: LC50
  CC50: 49 µM
MDA-MB-231/ATCC; MDA-MB-231
  IC50: 11.9 µM
MDA-MB-231/ATCC; MDA-MB-231, read-out: LC50
  CC50: 61.6 µM
MDA-MB-435; MDA-MB-435
  IC50: 2.12 µM
MDA-MB-435; MDA-MB-435, read-out: LC50
  CC50: 35.9 µM
NCI/ADR-RES
  IC50: 15.5 µM
NCI/ADR-RES; read-out: LC50
  CC50: > 100 µM
SR
  IC50: 1.73 µM
SR; read-out: LC50
  CC50: > 100 µM
PC-3; PC-3
  IC50: 5.95 µM
PC-3; PC-3, read-out: LC50
  CC50: 50.4 µM
COLO 205; COLO 205
  IC50: 10.6 µM
COLO 205; COLO 205, read-out: LC50
  CC50: 54.2 µM
UACC-257; UACC-257
  IC50: 9.96 µM
UACC-257; UACC-257, read-out: LC50
  CC50: 47.8 µM
NCI-H522; NCI-H522
  IC50: 6.56 µM
NCI-H522; NCI-H522, read-out: LC50
  CC50: 49.7 µM
HOP-92; HOP-92
  IC50: 2.06 µM
HOP-92; HOP-92, read-out: LC50
  CC50: 37.1 µM
ACHN
  IC50: 6.99 µM
ACHN; read-out: LC50
  CC50: 44.8 µM
HCT-116; HCT-116
  IC50: 1.49 µM
HCT-116; HCT-116, read-out: LC50
  CC50: 67.2 µM
SK-OV-3; SK-OV-3
  IC50: 14.4 µM
SK-OV-3; SK-OV-3, read-out: LC50
  CC50: 52.9 µM
HT29; HT-29
  IC50: 4.02 µM
HT29; HT-29, read-out: LC50
  CC50: 42.5 µM
SN12C
  IC50: 3.49 µM
SN12C; read-out: LC50
  CC50: 43.8 µM
SF-268; SF-268
  IC50: 5.88 µM
SF-268; SF-268, read-out: LC50
  CC50: 62.7 µM
MDA-MB-468; Homo sapiens, MDA-MB-468
  IC50: 1.2 µM
MDA-MB-468; Homo sapiens, MDA-MB-468, read-out: LC50
  CC50: 43.9 µM
MDA-MB-468; MDA-MB-468, single dose 10 μM
  lethality: 43.37%
SK-MEL-5; SK-MEL-5
  IC50: 17.6 µM
SK-MEL-5; SK-MEL-5, read-out: LC50
  CC50: 59.7 µM
RXF 393; Homo sapiens, RXF 393
  IC50: 1.9 µM
RXF 393; Homo sapiens, RXF 393, read-out: LC50
  CC50: 30 µM
RXF 393; RXF 393, single dose 10 μM
  lethality: 29.73%
TK-10; TK-10
  IC50: 12.9 µM
TK-10; TK-10, read-out: LC50
  CC50: 51.5 µM
Colon cancer cell lines
  inhibition at 10 µM: 72.5 to 96.2%
Breast cancer cell lines
  inhibition at 10 µM: 73.5 to 100%
Leukemia cell lines
  inhibition at 10 µM: 70.8 to 94.8%
NCI-H226; NCI-H226
  IC50: 10 µM
NCI-H226; NCI-H226, read-out: LC50
  CC50: 69.2 µM
UACC-62; UACC-62
  IC50: 12.2 µM
UACC-62; UACC-62, read-out: LC50
  CC50: 59.4 µM
MALME-3M
  IC50: 13.9 µM
MALME-3M; read-out: LC50
  CC50: 61.9 µM
MOLT-4; MOLT-4
  IC50: 10.1 µM
MOLT-4; MOLT-4, read-out: LC50
  CC50: > 100 µM
